What all share (type): biochemical
In one test the target is T1, LYP (Homo sapiens, UniProt Q9Y2R2).
T1 sequence (Q9Y2R2 2-309): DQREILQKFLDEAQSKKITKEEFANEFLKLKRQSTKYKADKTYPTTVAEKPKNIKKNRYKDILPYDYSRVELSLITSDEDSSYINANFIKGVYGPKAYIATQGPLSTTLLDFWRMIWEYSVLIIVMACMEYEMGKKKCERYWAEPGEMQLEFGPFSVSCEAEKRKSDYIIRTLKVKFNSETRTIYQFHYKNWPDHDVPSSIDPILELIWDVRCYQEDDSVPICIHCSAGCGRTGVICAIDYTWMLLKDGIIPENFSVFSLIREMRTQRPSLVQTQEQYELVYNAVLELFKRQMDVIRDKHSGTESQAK
Briefly: LYP inhibition assay with fluorogenic substrates. The conditions noted are these: for LYP versus PTP-PEST inhibition in comparative library screen: nominal 5 µM, DiFMUP and peptide 1; for IC50: pH 6.5; for selectivity for LYP over PTP-PEST in dose-response screens: in vitro, Table 1.

Another test deals with T2, PTP-PEST (Homo sapiens, UniProt Q05209).
T2 sequence (Q05209 2-323): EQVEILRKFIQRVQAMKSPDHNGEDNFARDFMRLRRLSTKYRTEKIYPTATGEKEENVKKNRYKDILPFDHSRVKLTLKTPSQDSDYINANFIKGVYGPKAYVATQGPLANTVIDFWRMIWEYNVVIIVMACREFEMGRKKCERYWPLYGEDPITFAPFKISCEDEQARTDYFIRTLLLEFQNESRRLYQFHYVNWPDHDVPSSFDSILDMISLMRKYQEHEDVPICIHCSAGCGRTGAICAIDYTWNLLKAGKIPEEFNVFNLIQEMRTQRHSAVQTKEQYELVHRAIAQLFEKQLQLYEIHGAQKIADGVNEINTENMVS
Briefly: PTP-PEST inhibition assay with fluorogenic substrates. The conditions noted are these: pH 6.5.

In the next test the target is T3, HePTP (Homo sapiens, UniProt P35236).
T3 sequence (P35236 65-360): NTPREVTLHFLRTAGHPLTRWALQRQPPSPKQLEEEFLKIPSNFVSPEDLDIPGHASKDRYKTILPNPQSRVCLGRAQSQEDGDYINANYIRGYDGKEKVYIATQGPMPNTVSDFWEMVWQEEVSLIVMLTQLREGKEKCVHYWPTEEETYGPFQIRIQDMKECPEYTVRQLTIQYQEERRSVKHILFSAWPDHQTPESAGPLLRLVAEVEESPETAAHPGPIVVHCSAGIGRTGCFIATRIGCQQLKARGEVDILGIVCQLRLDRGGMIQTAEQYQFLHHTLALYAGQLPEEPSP
Briefly: HePTP counterscreen. The conditions noted are these: read-out: IC50 HePTP (DiFMUP). In general terms: A counterscreen serves to expose hits that act by an unwanted route or on another target.

A further test deals with T4, CD45 (Homo sapiens, UniProt P08575).
T4 sequence (P08575 653-912 limits assumed): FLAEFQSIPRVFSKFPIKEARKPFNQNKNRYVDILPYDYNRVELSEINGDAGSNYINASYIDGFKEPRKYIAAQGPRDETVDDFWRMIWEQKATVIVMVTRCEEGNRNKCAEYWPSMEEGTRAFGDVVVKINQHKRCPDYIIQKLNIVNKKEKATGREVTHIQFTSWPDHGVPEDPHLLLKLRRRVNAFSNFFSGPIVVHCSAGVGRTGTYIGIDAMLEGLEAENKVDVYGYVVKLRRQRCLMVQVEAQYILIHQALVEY
Briefly: CD45 counterscreen. The conditions noted are these: read-out: IC50 CD45 (DiFMUP).

The target of a further test is T5, PTP1B (Homo sapiens, UniProt P18031).
T5 sequence (P18031 3-277 limits assumed): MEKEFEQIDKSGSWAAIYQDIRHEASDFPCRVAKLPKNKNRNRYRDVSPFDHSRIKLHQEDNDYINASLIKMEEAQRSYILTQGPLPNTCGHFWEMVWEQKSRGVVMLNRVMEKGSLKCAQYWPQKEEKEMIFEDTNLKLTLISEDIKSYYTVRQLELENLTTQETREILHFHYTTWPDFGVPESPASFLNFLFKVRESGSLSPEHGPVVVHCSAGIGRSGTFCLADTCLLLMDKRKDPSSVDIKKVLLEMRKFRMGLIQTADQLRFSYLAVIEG
Briefly: PTP1B inhibition assay with fluorogenic substrates. The conditions noted are these: for IC50: pH 7.1; for PTP1B inhibition in library screen, peptide 2 versus DiFMUP: nominal 5 µM.

A further test deals with T6, TCPTP (Homo sapiens, UniProt P17706).
T6 sequence (P17706 5-275 limits assumed): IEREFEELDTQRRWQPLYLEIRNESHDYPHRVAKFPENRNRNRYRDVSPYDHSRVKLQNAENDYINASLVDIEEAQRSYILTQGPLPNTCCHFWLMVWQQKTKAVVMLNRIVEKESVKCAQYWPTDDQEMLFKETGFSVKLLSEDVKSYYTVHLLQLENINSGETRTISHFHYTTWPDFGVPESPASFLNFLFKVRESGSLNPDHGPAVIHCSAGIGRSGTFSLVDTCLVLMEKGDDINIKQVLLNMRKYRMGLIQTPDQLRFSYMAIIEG
Briefly: TCPTP inhibition assay with fluorogenic substrates. The conditions noted are these: for IC50: pH 7.1.

The mark [1] stands for this setting: read-out: IC50 LYP (DiFMUP), substrate DiFMUP 1.5 µM.
Where [2] appears, read: read-out: IC50 LYP (peptide 1), substrate peptide 1 10 µM.
The mark [3] stands for this setting: read-out: IC50 PEST (peptide 1).
[4] abbreviates: read-out: IC50 PEST (DiFMUP), substrate DiFMUP 1.5 µM.
Where [5] appears, read: read-out: IC50 PEST (peptide 1), substrate peptide 1 10 µM.
Setting [6] is: read-out: IC50 PTP1B (DiFMUP), substrate DiFMUP 1.5 µM.
[7] abbreviates: read-out: IC50 PTP1B (peptide 2), substrate peptide 2 60 µM.
[8] abbreviates: read-out: IC50 TCPTP (DiFMUP), substrate DiFMUP 1.5 µM.
Where [9] appears, read: read-out: IC50 TCPTP (peptide 2), substrate peptide 2 60 µM.

Structures are written as SMILES. Like-named read-outs stand apart in the source and are kept apart here. Where only a bound is given, the exact number is not on record here.

Turning to `O=S(=O)(O)c1cccc([P+]([Au-][Cl])(c2ccccc2)c2ccccc2)c1` [Compound 12, 3-(Diphenylphosphino)benzenesulfonic acid-Au(I)-Cl], the “LYP versus PTP-PEST inhibition in comparative library screen” value (“LYP versus PTP-PEST inhibition” below) at LYP is “appear LYP-selective when DiFMUP is used in the assay, but not when the peptide is used”. The half-maximal inhibitory concentration (IC50) (commonly the midpoint of a concentration-inhibition curve) on LYP (setting [1]) is 2 ± 0.1 µM; on LYP (setting [2]), 1.9 ± 0.2 µM; on PTP-PEST (read-out: IC50 PEST (DiFMUP)), 70 ± 2 µM; at PTP-PEST (setting [3]), 4 ± 0.2 µM; at HePTP it was 40 ± 1 µM; at CD45 it was more than 70 µM. Further, the “selectivity for LYP over PTP-PEST” value turned out to be 35 fold on LYP (with DiFMUP as substrate) and 2 fold at LYP (with peptide 1 as substrate).

Consider `CP(C)c1ccccc1.[Cl][Au]` [Compound 13, Dimethylphenylphosphine-Au(I)-Cl], for which the “selectivity for LYP over PTP-PEST in dose-response screens” value on LYP was “selective for LYP over the ~ 70% identical PTP-PEST”. Besides, on LYP, the “LYP versus PTP-PEST inhibition” value is recorded as “more potent inhibitors of LYP than PTP-PEST regardless of the substrate used”. Moreover, the 50% inhibitory concentration (IC50) was 3.5 ± 0.3 µM at LYP (setting [1]); 2 ± 0.3 µM on LYP (setting [2]); 70 ± 2 µM at PTP-PEST (setting [4]); 30 ± 2 µM at PTP-PEST (setting [5]); more than 50 µM on HePTP (substrate DiFMUP); more than 100 µM at CD45 (substrate DiFMUP).

`O=S(=O)(O)c1ccc([P+]([Au-][Cl])(c2ccccc2)c2ccc(S(=O)(=O)O)cc2)cc1` [Compound 18, 4,4′-(Phenylphosphinidene)bis(benzenesulfonic acid)-Au(I)-Cl]: the “selectivity for LYP over PTP-PEST in dose-response screens” value at LYP was “selective for LYP over the ~ 70% identical PTP-PEST”. The 50% inhibitory concentration (IC50) was 2 ± 0.1 µM at LYP (setting [1]); 0.85 ± 0.05 µM at LYP (setting [2]); 39 ± 1 µM at PTP-PEST (read-out: IC50 PEST (DiFMUP)); 10 ± 2 µM on PTP-PEST (setting [3]); 16 ± 2 µM on HePTP; 26 ± 1 µM on CD45. Besides, the IC50 at PTP1B (read-out: IC50 PTP1B (DiFMUP)) was 16 ± 1 µM; on PTP1B (read-out: IC50 PTP1B (peptide 2)), 15 ± 1 µM; at TCPTP (read-out: IC50 TCPTP (DiFMUP)), 16 ± 1 µM; on TCPTP (read-out: IC50 TCPTP (peptide 2)), 7.5 ± 0.3 µM. Besides, the “selectivity between PTP1B and TCPTP in dose-response screens” value (from here on “selectivity between PTP1B and TCPTP”) at PTP1B is “no significant selectivity with DiFMUP”. Also, on TCPTP, the “TCPTP versus PTP1B inhibition in comparative library screen” value is listed as “slightly TCPTP selective with peptide 2”. In addition, the “selectivity for TCPTP (over PTP1B)” value at TCPTP is listed as “approximately 2 fold”.

`[Cl][Au][PH](c1ccco1)(c1ccco1)c1ccco1` [Compound 19, Tri-2-furylphosphine-Au(I)-Cl]: on PTP1B (Table 2), the “selectivity between PTP1B and TCPTP” value is given as “selective for PTP1B with both substrates”. Besides, the “PTP1B inhibition in library screen, peptide 2 versus DiFMUP” value on PTP1B was “inhibit PTP1B better with peptide 2 than with DiFMUP”. Besides, the half-inhibitory concentration (IC50) on PTP1B (setting [6]) stood at 0.33 ± 0.02 µM; at PTP1B (setting [7]), 0.2 ± 0.02 µM; on TCPTP (setting [8]), 2.4 ± 0.2 µM; on TCPTP (setting [9]), 2.2 ± 0.3 µM.

As to `[Cl][Au][PH](C1CCCCC1)(C1CCCCC1)C1CCCCC1` [Compound 25, Tricyclohexylphosphine-Au(I)-Cl], on LYP, the “LYP versus PTP-PEST inhibition” value is on record as “appear LYP-selective when DiFMUP is used in the assay, but not when the peptide is used”. The 50% inhibitory concentration (IC50) at LYP (setting [1]) was 25 ± 1 µM; on LYP (setting [2]), 61 ± 1 µM; at PTP-PEST (setting [4]) it was 45 ± 1 µM; at PTP-PEST (setting [5]), more than 80 µM; on HePTP (substrate DiFMUP) it was 20 ± 2 µM; on CD45 (substrate DiFMUP), more than 70 µM.

On to `N#CCC[P+](CCC#N)([Au-][Cl])c1ccccc1` [Compound 28, Bis(2-cyanoethyl)phenylphosphine-Au(I)-Cl], for which the “selectivity for LYP over PTP-PEST in dose-response screens” value on LYP was “selective for LYP over the ~ 70% identical PTP-PEST”. In addition, the IC50 on LYP (setting [1]) is 3.5 ± 0.1 µM; on LYP (setting [2]) it was 2.5 ± 0.6 µM; at PTP-PEST (setting [4]), more than 80 µM; on PTP-PEST (setting [5]), 33 ± 1 µM; on HePTP (substrate DiFMUP) it was more than 50 µM; at CD45 (substrate DiFMUP) it was more than 70 µM.

For `Fc1c(F)c(F)c([PH]([Au][Cl])(c2c(F)c(F)c(F)c(F)c2F)c2c(F)c(F)c(F)c(F)c2F)c(F)c1F` [Compound 40], the “selectivity between PTP1B and TCPTP” value at PTP1B (Table 2) is on record as “no significant selectivity with DiFMUP”. Moreover, the “PTP1B inhibition in library screen, peptide 2 versus DiFMUP” value on PTP1B is on record as “the reverse seems to be true”. Further, the half-maximal inhibitory concentration (IC50) on PTP1B (setting [6]) was found to be 7.5 ± 0.2 µM; at PTP1B (setting [7]), 5.4 ± 0.3 µM; at TCPTP (setting [8]), 6.7 ± 0.2 µM; at TCPTP (setting [9]), 57 ± 1 µM. Besides, on PTP1B (with peptide 2 as substrate), the “selectivity for PTP1B (over TCPTP)” value is approximately 10 fold.

The record behind these values is paper PMC2801581 (Journal of medicinal chemistry, 2009).
